{"source": "patent US11596632B2", "about": "“JAK1 pathway inhibitors for the treatment of gastrointestinal disease” (Incyte Corporation, priority 2018, dated 2023)", "key": {"[1]": {"system": "TNBS-induced colitis in BALB/c mice", "assay": "TNBS-induced colitis model in mice", "type": "in vivo, mouse", "text": "(§1) Preclinical models of IBD were established in BALB/c mice by intracolonic injection of 2,4,6-trinitrobenzene sulfonic acid (TNBS) or 4-ethoxymethylene-2-phenyl-2-oxazolin-5-one (oxazolone) to trigger an immune response, as described below. Body weight, stool consistency and fecal blood were scored. Additional readouts included colon weight to length ratio and histological evaluation. Blood was collected for pharmacokinetic analysis.\nMale BALB/c mice were purchased (Charles River Laboratories) and distal colitis was induced by intracolonic instillation of TNBS (2,4,6-trinitrobenzenesulfonic acid solution, 1 mg in 0.1 mL 50% ethanol). Compound 1 treatment was administered at 30 mg/kg by oral gavage (PO) or 3 mg/kg by intracolonic injection (IC) twice daily (BID). Diarrhea was quantified on a 0-3 rating scale, (0=normal; 1=soft but still formed; 2=very soft; 3=diarrhea) on days 3 to 5 post TNBS sensitization."}, "[2]": {"assay": "Circulating and colon tissue drug concentrations in mice, oral vs intracolonic", "type": "in vivo, mouse", "text": "as §1\nIn a further study, quantification of circulating and tissue drug concentrations clearly differentiated the local versus systemic JAK1 target inhibition. […] In contrast, localized Compound 1 delivery was characterized by minimal peak systemic concentrations of approximately 0.04 μM but sustained exposure ≥0.45 μM in the colon tissue, as shown in FIG. 11D. Therefore, strategic targeting or release of JAK1 inhibitors within the inflamed gastrointestinal tissue can potentially achieve improved benefit-risk profiles."}, "[3]": {"assay": "Quantitative autoradioluminography (QARL) of colon sections", "type": "in vitro ADME, human", "details": "ex vivo, 100 and 1000 nM apical, 1 h", "protocol": "Intestinal tissue permeation studies were performed using a vertical Ussing diffusion chamber system (Harvard Apparatus, Holliston, Mass.) for healthy tissues. Frozen tissues were thawed to ambient temperature and rinsed with pre-warmed KRB buffer used for dose formulation before being gently placed on the apparatus. Permeation was carried out mucosal-to-serosal at 37° C. for 1 hour with test article in KRB buffer added to the mucosal side. The receiver side of Ussing chamber containing blank KRB buffer was stirred with air bubbles by an aerator. Due to the limited availability of the samples, UC tissues were mounted (mucosal side up) on one end of a polypropylene tube with both ends cut open, and serosal side placed on blank KRB buffer in a vial with a stirring bar. KRB containing the test article was added into the tube and thus the mucosal side of the tissue was exposed to test article during the incubation. After 1 hour incubation at 37° C., samples (100-500 μL) were taken from both donor and receiver side, and then transferred to a 1.5 mL tube for evaluating the permeation. […]\nAll response curves determined for image analysis calibration were generated using a weighted 1st degree, polynomial, linear equation (1/MDC/mm^2). […]\nThe LLOQ was determined as 3 times the mean background for each panel. […]"}, "[4]": {"system": "oxazolone-induced colitis in BALB/c mice", "assay": "Mouse oxazolone-induced colitis model", "type": "in vivo"}, "JAK2 (a.a. 828-1132)": {"target": "JAK2 (a.a. 828-1132) (Homo sapiens (Human), UniProt O60674)", "sequence (O60674 828-1132)": "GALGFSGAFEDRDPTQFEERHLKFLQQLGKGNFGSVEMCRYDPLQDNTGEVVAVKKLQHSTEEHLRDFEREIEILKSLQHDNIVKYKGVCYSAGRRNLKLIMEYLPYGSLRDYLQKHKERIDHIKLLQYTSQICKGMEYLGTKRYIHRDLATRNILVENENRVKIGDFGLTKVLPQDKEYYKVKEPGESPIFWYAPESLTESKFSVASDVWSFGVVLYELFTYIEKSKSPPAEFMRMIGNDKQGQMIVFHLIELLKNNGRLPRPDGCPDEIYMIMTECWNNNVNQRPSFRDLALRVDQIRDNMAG", "assay": "In vitro JAK kinase assay (HTRF), JAK2 relative to JAK1", "type": "biochemical", "details": "IC50 ratio, 1 mM ATP", "protocol": "The catalytic activity of JAK1, JAK2 or JAK3 was assayed by measuring the phosphorylation of a biotinylated peptide. The phosphorylated peptide was detected by homogenous time resolved fluorescence (HTRF). […] Reactions are carried out at room temperature for 1 hour and then stopped with 20 μL 45 mM EDTA, 300 nM SA-APC, 6 nM Eu-Py20 in assay buffer (Perkin Elmer, Boston, Mass.). Binding to the Europium labeled antibody takes place for 40 minutes and HTRF signal was measured on a Fusion plate reader (Perkin Elmer, Boston, Mass.)."}, "[5]": {"details": "localized intracolonic delivery (3 mg/kg)"}}, "note": "Entries after “also recorded” stand apart in the source; their conditions may differ.", "data": [{"smiles": "N#CCC1(n2cc(-c3ncnc4[nH]ccc34)cn2)CN(C2CCN(C(=O)c3ccnc(C(F)(F)F)c3F)CC2)C1", "note": "[Compound 1, {1-{1-[3-Fluoro-2-(trifluoromethyl)isonicotinoyl]piperidin-4-yl}-3-[4-(7H-pyrrolo[2,3-d]pyrimidin-4-yl)-1H-pyrazol-1-yl]azetidin-3-yl}acetonitrile]", "values": [{"measurement": "fecal blood score", "setting": "[1]; 3 mg/kg IC BID", "result": "significant (p<0.05) decrease in fecal blood score"}, {"measurement": "total colonic macroscopic damage", "setting": "[1]; 3 mg/kg IC BID", "result": "ameliorated total colonic macroscopic damage"}, {"measurement": "disease severity / disease recovery", "setting": "[1]; 3 mg/kg intracolonic BID", "result": "significantly reduced disease severity; also recorded: highly efficacious in enhancing disease recovery; also recorded: more rapidly induced recovery; also recorded: highly efficacious in TNBS-induced colitis"}, {"measurement": "disease severity / disease score recovery", "setting": "[1]; 30 mg/kg PO BID, vs vehicle", "result": "significantly reduced disease severity; also recorded: accelerated disease score recovery"}, {"measurement": "stool consistency", "setting": "[1]; 30 mg/kg PO or 3 mg/kg intracolonic, twice daily, vs control", "result": "significantly (p<0.05) improved stool consistency"}, {"measurement": "systemic drug exposure relative to JAK1 IC50", "setting": "[2]; intracolonic doses", "result": "below JAK1 IC50"}, {"measurement": "peak systemic concentrations", "setting": "[2]; [5]", "result": "approximately 0.04 μM"}, {"measurement": "sustained exposure in the colon tissue", "setting": "[2]; [5]", "result": "≥ 0.45", "unit": "µM"}, {"measurement": "peak circulating drug level", "setting": "[2]; oral dosing (30 mg/kg)", "result": "approximately 11 μM"}, {"measurement": "penetration into colon tissue layers", "setting": "[3]", "result": "penetrated into the mucosal layer and, to a lesser extent, submucosal layer in a concentration dependent manner"}, {"measurement": "colon shortening", "setting": "[4]; 3 mg/kg IC BID", "result": "significantly ameliorated colon shortening; also recorded: significantly (p<0.05) reduced colon shortening"}, {"measurement": "macroscopic tissue pathology", "setting": "[4]; 30 mg/kg BID oral", "result": "ameliorating macroscopic tissue pathology"}, {"measurement": "normalized colon weight (inflammatory swelling)", "setting": "[4]; 30 mg/kg BID oral", "result": "reducing normalized colon weight"}, {"measurement": "recovery from diarrhea and rectal bleeding (symptoms)", "setting": "[4]; 30 mg/kg BID oral", "result": "reduces symptoms; also recorded: efficacious in accelerating recovery from diarrhea and rectal bleeding"}, {"measurement": "colon shortening", "setting": "[4]; 30 mg/kg PO BID", "result": "significantly ameliorated colon shortening; also recorded: significant (p<0.05) reduction in colon shortening"}, {"measurement": "stool consistency and fecal occult blood scoring", "setting": "[4]; twice daily, orally or intracolonically, vs vehicle", "result": "significantly ameliorated stool consistency and reduced fecal occult blood scoring"}, {"measurement": "JAK2/JAK1", "setting": "JAK2 (a.a. 828-1132)", "result": ">10"}]}]}
